Reference: patent publication US10004701B2, “Methods and compositions for treating infection” (UNIVERSITY OF ROCHESTER, priority 2012, dated 2018)
Where two headings read alike, the source gives them in different places.

Tests used:
Test in all cases: AK assay 384-well format, Prestwick library screening
E. faecium = format: cell-based, Enterococcus faecium; details: 50 μM final drug concentration; for fold induction at 50 µM: Enterococcus faecium, 3 h
[1] = test system: S. aureus strain USA300-0114; format: cell-based, Staphylococcus aureus; details: 50 μM final drug concentration; for fold induction at 50 µM: Staphylococcus aureus, USA300, 3 h
K. pneumoniae = format: cell-based, Klebsiella pneumoniae; details: 50 μM final drug concentration; for fold induction at 50 µM: Klebsiella pneumoniae, 3 h
[2] = test system: A. baumannii strain 98-37-09; format: cell-based, Acinetobacter baumannii; details: 50 μM final drug concentration; for fold induction at 50 µM: Acinetobacter baumannii, 983709, 3 h
P. aeruginosa = format: cell-based, Pseudomonas aeruginosa; details: 50 μM final drug concentration; for fold induction at 50 µM: Pseudomonas aeruginosa, 3 h
E. cloacae = format: cell-based, Enterobacter cloacae; details: 50 μM final drug concentration; for fold induction at 50 µM: Enterobacter cloacae, 3 h
E. coli = format: cell-based, Escherichia coli; details: 50 μM final drug concentration; for fold induction at 50 µM: Escherichia coli, 3 h
[3] = planktonic E. faecium, cutoff for positive-scoring molecules 3-fold increase, read-out: AK-based Prestwick Library Screening Results, E. faecium (increase in extracellular AK activity)
[4] = planktonic S. aureus, cutoff for positive-scoring molecules 3-fold increase, read-out: AK-based Prestwick Library Screening Results, S. aureus (increase in extracellular AK activity)
[5] = planktonic K. pneumoniae, cutoff for positive-scoring molecules 3-fold increase, read-out: AK-based Prestwick Library Screening Results, K. pneumoniae (increase in extracellular AK activity)
[6] = planktonic A. baumannii, cutoff for positive-scoring molecules 3-fold increase, read-out: AK-based Prestwick Library Screening Results, A. baumannii (increase in extracellular AK activity)
[7] = planktonic P. aeruginosa, cutoff for positive-scoring molecules 3-fold increase, read-out: AK-based Prestwick Library Screening Results, P. aeruginosa (increase in extracellular AK activity)
[8] = planktonic E. cloacae, cutoff for positive-scoring molecules 3-fold increase, read-out: AK-based Prestwick Library Screening Results, E. cloacae (increase in extracellular AK activity)
[9] = planktonic E. coli, cutoff for positive-scoring molecules 3-fold increase, read-out: AK-based Prestwick Library Screening Results, E. coli (increase in extracellular AK activity)
[10] = planktonic E. faecium, 384-well, cutoff for positive-scoring molecules 3-fold increase, read-out: AK-based Prestwick Library Screening Results: E. faecium (increase in extracellular AK activity)
[11] = planktonic S. aureus, 384-well, cutoff for positive-scoring molecules 3-fold increase, read-out: AK-based Prestwick Library Screening Results: S. aureus (increase in extracellular AK activity)
[12] = planktonic K. pneumoniae, 384-well, cutoff for positive-scoring molecules 3-fold increase, read-out: AK-based Prestwick Library Screening Results: K. pneumoniae (increase in extracellular AK activity)
[13] = planktonic A. baumannii, 384-well, cutoff for positive-scoring molecules 3-fold increase, read-out: AK-based Prestwick Library Screening Results: A. baumannii (increase in extracellular AK activity)
[14] = planktonic P. aeruginosa, 384-well, cutoff for positive-scoring molecules 3-fold increase, read-out: AK-based Prestwick Library Screening Results: P. aeruginosa (increase in extracellular AK activity)
[15] = planktonic E. cloacae, 384-well, cutoff for positive-scoring molecules 3-fold increase, read-out: AK-based Prestwick Library Screening Results: E. cloacae (increase in extracellular AK activity)
[16] = planktonic E. coli, 384-well, cutoff for positive-scoring molecules 3-fold increase, read-out: AK-based Prestwick Library Screening Results: E. coli (increase in extracellular AK activity)
[17] = planktonic, cutoff for positive-scoring molecules 3-fold increase, read-out: AK-based Prestwick Library Screening Results, E. faecium (fold increase in extracellular AK activity)
[18] = planktonic, cutoff for positive-scoring molecules 3-fold increase, read-out: AK-based Prestwick Library Screening Results, S. aureus (fold increase in extracellular AK activity)
[19] = planktonic, cutoff for positive-scoring molecules 3-fold increase, read-out: AK-based Prestwick Library Screening Results, K. pneumoniae (fold increase in extracellular AK activity)
[20] = planktonic, cutoff for positive-scoring molecules 3-fold increase, read-out: AK-based Prestwick Library Screening Results, A. baumannii (fold increase in extracellular AK activity)
[21] = planktonic, cutoff for positive-scoring molecules 3-fold increase, read-out: AK-based Prestwick Library Screening Results, P. aeruginosa (fold increase in extracellular AK activity)
[22] = planktonic, cutoff for positive-scoring molecules 3-fold increase, read-out: AK-based Prestwick Library Screening Results, E. cloacae (fold increase in extracellular AK activity)
[23] = planktonic, cutoff for positive-scoring molecules 3-fold increase, read-out: AK-based Prestwick Library Screening Results, E. coli (fold increase in extracellular AK activity)

SMILES: O=C(O)c1cc(/N=N/c2ccc(S(=O)(=O)Nc3ccccn3)cc2)ccc1O [Sulfasalazine]
- fold induction at 50 µM (E. faecium; [3]): 0.9
- fold induction at 50 µM [1, 4]: 0.8
- fold induction at 50 µM (K. pneumoniae; [5]): 0.7
- fold induction at 50 µM [2, 6]: 1.1
- fold induction at 50 µM (P. aeruginosa; [7]): 0.8
- fold induction at 50 µM (E. cloacae; [8]): 1.1
- fold induction at 50 µM (E. coli; [9]): 0.8

SMILES: Nc1ccc(S(=O)(=O)Nc2nccs2)cc1 [Sulfathiazole]
- fold induction at 50 µM (E. faecium; 384-well format, cutoff for positive-scoring molecules 3-fold increase, read-out: AK-based Prestwick Library Screening Results, E. faecium (increase in extracellular AK activity)): 0.9
- fold induction at 50 µM ([1]; 384-well format, cutoff for positive-scoring molecules 3-fold increase, read-out: AK-based Prestwick Library Screening Results, S. aureus (increase in extracellular AK activity)): 0.6
- fold induction at 50 µM (K. pneumoniae; 384-well format, cutoff for positive-scoring molecules 3-fold increase, read-out: AK-based Prestwick Library Screening Results, K. pneumoniae (increase in extracellular AK activity)): 0.6
- fold induction at 50 µM ([2]; 384-well format, cutoff for positive-scoring molecules 3-fold increase, read-out: AK-based Prestwick Library Screening Results, A. baumannii (increase in extracellular AK activity)): 1
- fold induction at 50 µM (P. aeruginosa; 384-well format, cutoff for positive-scoring molecules 3-fold increase, read-out: AK-based Prestwick Library Screening Results, P. aeruginosa (increase in extracellular AK activity)): 0.6
- fold induction at 50 µM (E. cloacae; 384-well format, cutoff for positive-scoring molecules 3-fold increase, read-out: AK-based Prestwick Library Screening Results, E. cloacae (increase in extracellular AK activity)): 0.7
- fold induction at 50 µM (E. coli; 384-well format, cutoff for positive-scoring molecules 3-fold increase, read-out: AK-based Prestwick Library Screening Results, E. coli (increase in extracellular AK activity)): 0.7

SMILES: O=C1C(CC[S+]([O-])c2ccccc2)C(=O)N(c2ccccc2)N1c1ccccc1 (centres unmarked) [Sulfinpyrazone]
- fold induction at 50 µM (E. faecium; [10]): 1.1
- fold induction at 50 µM [1, 11]: 3.5
- fold induction at 50 µM (K. pneumoniae; [12]): 1
- fold induction at 50 µM [2, 13]: 1.2
- fold induction at 50 µM (P. aeruginosa; [14]): 1
- fold induction at 50 µM (E. cloacae; [15]): 1.2
- fold induction at 50 µM (E. coli; [16]): 1.3

SMILES: Cc1noc(NS(=O)(=O)c2ccc(N)cc2)c1C [Sulfisoxazole]
- fold induction at 50 µM (E. faecium; [3]): 0.9
- fold induction at 50 µM [1, 4]: 0.5
- fold induction at 50 µM (K. pneumoniae; [5]): 0.5
- fold induction at 50 µM [2, 6]: 1
- fold induction at 50 µM (P. aeruginosa; [7]): 0.6
- fold induction at 50 µM (E. cloacae; [8]): 0.7
- fold induction at 50 µM (E. coli; [9]): 0.7

SMILES: CC1=C(CC(=O)O)c2cc(F)ccc2/C1=C\c1ccc([S+](C)[O-])cc1 (centres unmarked) [Sulindac]
- fold induction at 50 µM (E. faecium; [10]): 0.9
- fold induction at 50 µM [1, 11]: 0.8
- fold induction at 50 µM (K. pneumoniae; [12]): 1
- fold induction at 50 µM [2, 13]: 1.1
- fold induction at 50 µM (P. aeruginosa; [14]): 0.8
- fold induction at 50 µM (E. cloacae; [15]): 1.5
- fold induction at 50 µM (E. coli; [16]): 1.1

SMILES: COc1cc([S+](C)[O-])ccc1-c1nc2ncccc2[nH]1 (centres unmarked) [Sulmazole]
- fold induction at 50 µM (E. faecium; planktonic, cutoff for positive 3-fold increase, read-out: AK-based Prestwick Library Screening Results, E. faecium (fold increase in extracellular AK activity)): 0.9
- fold induction at 50 µM ([1]; planktonic, cutoff for positive 3-fold increase, read-out: AK-based Prestwick Library Screening Results, S. aureus (fold increase in extracellular AK activity)): 0.4
- fold induction at 50 µM (K. pneumoniae; planktonic, cutoff for positive 3-fold increase, read-out: AK-based Prestwick Library Screening Results, K. pneumoniae (fold increase in extracellular AK activity)): 0.5
- fold induction at 50 µM ([2]; planktonic, cutoff for positive 3-fold increase, read-out: AK-based Prestwick Library Screening Results, A. baumannii (fold increase in extracellular AK activity)): 0.3
- fold induction at 50 µM (P. aeruginosa; planktonic, cutoff for positive 3-fold increase, read-out: AK-based Prestwick Library Screening Results, P. aeruginosa (fold increase in extracellular AK activity)): 0.3
- fold induction at 50 µM (E. cloacae; planktonic, cutoff for positive 3-fold increase, read-out: AK-based Prestwick Library Screening Results, E. cloacae (fold increase in extracellular AK activity)): 0.3
- fold induction at 50 µM (E. coli; planktonic, cutoff for positive 3-fold increase, read-out: AK-based Prestwick Library Screening Results, E. coli (fold increase in extracellular AK activity)): 0.3

SMILES: CCN1CCCC1CNC(=O)c1cc(S(N)(=O)=O)ccc1OC (centres unmarked) [Sulpiride]
- fold induction at 50 µM (E. faecium; planktonic E. faecium, 384-well, […], read-out: AK-based Prestwick Library Screening Results: E. faecium (increase in extracellular AK activity)): 1
- fold induction at 50 µM ([1]; planktonic S. aureus, 384-well, […], read-out: AK-based Prestwick Library Screening Results: S. aureus (increase in extracellular AK activity)): 1.1
- fold induction at 50 µM (K. pneumoniae; planktonic K. pneumoniae, 384-well, […], read-out: AK-based Prestwick Library Screening Results: K. pneumoniae (increase in extracellular AK activity)): 1
- fold induction at 50 µM ([2]; planktonic A. baumannii, 384-well, […], read-out: AK-based Prestwick Library Screening Results: A. baumannii (increase in extracellular AK activity)): 1
- fold induction at 50 µM (P. aeruginosa; planktonic P. aeruginosa, 384-well, […], read-out: AK-based Prestwick Library Screening Results: P. aeruginosa (increase in extracellular AK activity)): 1.1
- fold induction at 50 µM (E. cloacae; planktonic E. cloacae, 384-well, […], read-out: AK-based Prestwick Library Screening Results: E. cloacae (increase in extracellular AK activity)): 1.6
- fold induction at 50 µM (E. coli; planktonic E. coli, 384-well, […], read-out: AK-based Prestwick Library Screening Results: E. coli (increase in extracellular AK activity)): 1

SMILES: CC(C(=O)O)c1ccc(C(=O)c2cccs2)cc1 (centres unmarked) [Suprofen]
- fold induction at 50 µM (E. faecium; [17]): 0.9
- fold induction at 50 µM [1, 18]: 0.6
- fold induction at 50 µM (K. pneumoniae; [19]): 0.7
- fold induction at 50 µM [2, 20]: 0.8
- fold induction at 50 µM (P. aeruginosa; [21]): 0.7
- fold induction at 50 µM (E. cloacae; [22]): 0.9
- fold induction at 50 µM (E. coli; [23]): 0.7

SMILES: CCCCC1(COC(=O)CCC(=O)O)C(=O)N(c2ccccc2)N(c2ccccc2)C1=O [Suxibuzone]
- fold induction at 50 µM (E. faecium; [17]): 0.9
- fold induction at 50 µM [1, 18]: 0.6
- fold induction at 50 µM (K. pneumoniae; [19]): 0.6
- fold induction at 50 µM [2, 20]: 0.8
- fold induction at 50 µM (P. aeruginosa; [21]): 0.6
- fold induction at 50 µM (E. cloacae; [22]): 0.8
- fold induction at 50 µM (E. coli; [23]): 0.6

SMILES: CCOC(=O)Oc1c(OC)cc(C(=O)O[C@@H]2C[C@@H]3CN4CCc5c([nH]c6cc(OC)ccc56)[C@H]4C[C@@H]3[C@H](C(=O)OC)[C@H]2OC)cc1OC [Syrosingopine]
- fold induction at 50 µM (E. faecium; [3]): 0.9
- fold induction at 50 µM [1, 4]: 0.3
- fold induction at 50 µM (K. pneumoniae; [5]): 0.5
- fold induction at 50 µM [2, 6]: 0.6
- fold induction at 50 µM (P. aeruginosa; [7]): 0.5
- fold induction at 50 µM (E. cloacae; [8]): 0.6
- fold induction at 50 µM (E. coli; [9]): 0.6

SMILES: Cl.O=c1[nH]oc2c1CCNC2 [THIP Hydrochloride]
- AK-based Prestwick Library Screening Results, E. faecium (fold increase in extracellular AK activity) (E. faecium; […]): 1.0
- AK-based Prestwick Library Screening Results, S. aureus (fold increase in extracellular AK activity) ([1]; […]): 0.6
- AK-based Prestwick Library Screening Results, K. pneumoniae (fold increase in extracellular AK activity) (K. pneumoniae; […]): 0.6
- AK-based Prestwick Library Screening Results, A. baumannii (fold increase in extracellular AK activity) ([2]; […]): 0.6
- AK-based Prestwick Library Screening Results, P. aeruginosa (fold increase in extracellular AK activity) (P. aeruginosa; […]): 0.6
- AK-based Prestwick Library Screening Results, E. cloacae (fold increase in extracellular AK activity) (E. cloacae; […]): 0.8
- AK-based Prestwick Library Screening Results, E. coli (fold increase in extracellular AK activity) (E. coli; […]): 0.6
